According to article PMC6353801, “Enhanced Anti-diabetic Effect of Berberine Combined With Timosaponin B2 in Goto-Kakizaki Rats, Associated With Increased Variety and Exposure of Effective Substances Through Intestinal Absorption” (Frontiers in Pharmacology, 2019):

Experiments:
[1] = Body weight, food intake, organ coefficients and side effects in GK rats; type: in vivo, rat; settings: day 42
Method: (§1) Four-week-old male GK rats were fed a high-fat diet, and age-matched non-diabetic Wistar rats were fed standard chow as the control group. Under these dietary conditions, blood glucose was estimated each week for 7 weeks in 12-h fasted rats using a portable glucometer (One Touch Sure Step Meter, Johnson & Johnson, United States) by drawing the blood from the tail vein. GK rats with fasting blood glucose levels (FBG) above 16.7 mM were considered as diabetic rats, and only uniformly diabetic rats were used in this study. […] All the drugs were suspended in 0.5% carboxymethylcellulose sodium (CMC-Na) solution for oral gavage (10 ml/kg) once per day (at 9:00) for 6 weeks. Simultaneously, the Wistar and vehicle groups received vehicle over the treatment period. Food consumption and body weight were measured every week throughout the experimental periods. Non-fasting blood glucose (NFBG) levels were determined by collecting blood samples from the tail vein (at 9:00), and FBG levels were determined after a 6-h fast (at 15:00) on days 0, 7, 14, 21, and 42. On day 28, an oral glucose tolerance test (OGTT) was performed after an overnight fast. […] On day 42, the rats were anesthetized with urethane (1.4 g/kg, dissolved in saline) after an overnight fast and were sacrificed to collect the liver, kidney, heart, and spleen. The organs were weighed after washing with saline and drying to calculate the organ coefficient, namely, the ratio between the weight of organs and the body in each rat.

GK rats [2] = experiment: Oral glucose tolerance test (OGTT) in GK rats on day 28; type: in vivo, rat; settings: after 4 weeks of treatment, glucose 2 g/kg oral
Method: as §1

GK rats [3] = experiment: NFBG and FBG levels in GK rats, 6-week oral treatment; type: in vivo, rat; settings: during 6-week treatment, TB-2 33.3, BBR 66.7, TB-2+BBR 100, metformin 200 mg/kg/day
Method: as §1

primary rat hepatocytes = experiment: Hepatic metabolism in primary hepatocytes; settings: 3 h
[4] = Liver distribution in Wistar rats; settings: liver; for increase in AUC on co-administration vs single treatment / exposure (AUC) of metabolite as share of the exposure of BBR / AUC ± SE / Cmax / Tmax / increase in Cmax on co-administration vs single treatment: Wistar rats; for AUC ± SE / Cmax / half-life / Tmax: n = 5; for Cmax / half-life / Tmax: male, Wistar, rat, po; for Cmax: Cmax ± SE; for half-life: T1/2, Wistar rats
[5] = single oral BBR 66.7 mg/kg alone
[6] = single oral BBR+TB-2 (66.7+33.3 mg/kg)
[7] = single treatment (On TB-2 treatments)
[8] = 33.3 mg/kg, single oral BBR+TB-2 (66.7+33.3 mg/kg)
[9] = 66.7 mg/kg, single oral BBR 66.7 mg/kg alone

SMILES	effect on organ coefficients (liver and kidney) vs vehicle [1]	decrease in the AUC of blood glucose in OGTT vs vehicle (GK rats [2])	decrease of blood glucose levels in OGTT at 30 min vs vehicle (GK rats [2])	FBG levels compared with the vehicle group (in words) (GK rats [3])	NFBG levels compared with the vehicle group (in words) (GK rats [3])	effect on BBR metabolism and the generation of M2–M5 (primary rat hepatocytes; BBR 1 μM, ABT 1 mM, TB-2 0.1 to 30 μM)	increase in AUC on co-administration vs single treatment [4]	exposure (AUC) of metabolite as share of the exposure of BBR ([4]; TB-2+BBR treatments)	AUC ± SE [4, 5]	AUC ± SE [4, 6]	exposure (AUC) of metabolite as share of the exposure of BBR [4, 7]	Cmax [4, 8]	half-life [4, 8]	Tmax [4, 8]	Cmax [4, 9]	half-life [4, 9]	Tmax [4, 9]	metabolism after incubation (in words) (primary rat hepatocytes; midazolam 20 μM, TB-2 1 μM)	increase in Cmax on co-administration vs single treatment [4]
CN(C)C(=N)N=C(N)N [metformin]	no effect	11.3%	30%	significantly decreased	did not significantly decrease														
Nn1nnc2ccccc21 [ABT, 1-aminobenzotriazole]						completely abrogated													
COc1cc2c(cc1O)-c1cc3ccc(OC)c(OC)c3c[n+]1CC2 [M5, columbamine]							35%	11%	362.8 ± 18.7 h ∗ ng/g	489.2 ± 59.2^∗ h ∗ ng/g	11%	184 ± 38.4 ng/g	6 h	2 h	89.4 ± 15.6 ng/g	9.5 h	2 h		
Cc1ncc2n1-c1ccc(Cl)cc1C(c1ccccc1F)=NC2 [midazolam]																		significantly metabolized	
COc1ccc2cc3[n+](cc2c1OC)CCc1cc(O)c(O)cc1-3 [M3, demethyleneberberine]							144%	12%	234.5 ± 29.3 h ∗ ng/g	572.9 ± 34.7^∗∗∗ h ∗ ng/g	7%	106 ± 18.2 ng/g	6.2 h	2 h	38.8 ± 5.6 ng/g	18.5 h	2 h		174%
COc1cc2c(cc1O)CC[n+]1cc3c(OC)c(OC)ccc3cc1-2 [M4, jatrorrhizine]							31%	15%	527.5 ± 25.0 h ∗ ng/g	690.8 ± 59.6^∗ h ∗ ng/g	16%	200 ± 33.7 ng/g	7 h	2 h	78.2 ± 10.7 ng/g	9.7 h	2 h		156%
COc1c(O)ccc2cc3[n+](cc12)CCc1cc2c(cc1-3)OCO2 [M2, Thalifendine]								144%	5935.8 ± 164.9 h ∗ ng/g	6651.2 ± 469.0 h ∗ ng/g	182%	1660 ± 255 ng/g	5 h	2 h	766 ± 54.3 ng/g	6.8 h	4 h		117%
